Test results from US20040076622A1, “Local production and/or delivery of anti-cancer agents by stromal cell precursors” (Board of Regents, The University of Texas System, priority 2002, published 2004).
Where two headings read alike, the source gives them in different places.

How the values were obtained:
[1] = system: KBM5 cells; assay: Growth inhibition of KBM5 cells by STI and IFN-α; format: cell-based; conditions: ST1571 0.5, 1.0, 2.0 tmol; IFNα 2,000, 5,000, 10,000 U
Source text: (§1) The effects of IFNA and ST1571 on STI-resistant KBM5 cells were studied.

[2] = system: KBM5-STI cells; assay: Growth inhibition of STI-resistant KBM5 cells by STI and IFN-α; format: cell-based; conditions: for Growth inhibition of KBM5-STI cells: ST1571 0.5, 1.0, 2.0 tmol, IFNα 2,000, 5,000, 10,000 U
Source text: as §1

[3] = system: CML; conditions: cited from earlier work
[4] = system: melanoma; conditions: cited from earlier work
[5] = system: MFP-regulated promoter; assay: MFP dependent induction of IFN-α from AAV-infected MSC (ELISA); format: cell-based, human; conditions: MSC infected with MFP regulated AAV
Experimental: Regulated expression from a drug inducible AAV vector. An AAV construct was used that expressed IFN-α under the control of a MFP-regulated promoter, to infect normal donor MSC in vitro. Briefly, MSC were infected with 10^3 GE of AAV-IFN-α and 10^3 GE of AAV-gal4prlMFP, and expanded for 10 additional days. These cells were subcultured into 12 well dished were MFP (dissolved in 0.1% ETOH) or solvent carrier was added at the concentrations noted. MSC infected w/ the MFP regulated AAV, express IFN-α only after 18 h exposure to MFP (FIG. 4A). Three drug concentrations were tested, each dose was 10-fold less than the previous one, and with the initial dose of 10^−7 M being 3 logs less than the dose commonly given for chemical abortions in humans. Of note is that a one-time addition of MFP results in a prolonged 8-10 day expression of IFN-α, peaking at 4-5 days after drug addition. […] Ten days after IFN-α level reached background activity we waited 3 additional days and added another dose of 10^-8 M MFP. […]
Exemplary methods for harvesting, culture, and infection of MSC. […] Forty-eight hours later cells are analyzed for βgal expression using X-gal histochemical staining or analysis with FACS utilizing CM-FDG, as in Marini et al. (1999). […] Six to 24 h later, supernatant is collected and analyzed via Quantikine IFN-α ELISA (Biosource International Inc Camarillio Calif.).

[6] = Systemic expression of IFN-α after intramuscular injection of AAV in mice (ELISA); format: in vivo, mouse; conditions: one application of MFP given IP, mice injected with inducible AAVs
Experimental: In vivo testing. To initiate a in vivo culture model of CML, two BCR-ABL+ cell lines, the K562 (which grow extramedullary in nu/nu mice) or BV173 (which grows intra bone marrow in BalbC/nu mice) were injected into respective mice. […] Utilizing the BV173 cell line we tested three cell doses and found one million BV173 cells were sufficient to kill the mice within 45 days, whereas 5×10^5 BV173 cells allowed the mice to survive for 60+ days with one mice still surviving. […] As an alternative to using MSCs as a cell based therapy, the AAV vectors may be directly inject into the muscle, thereby allowing secretion of IFN-α systemically. Evaluation of this route of delivery was performed by an intramuscular injection of […] AAV-CMV-IFN-α or 5×10^10 GE of AAV-Gal4hPRL-65AD and 5×10^10 GE of AAV-G5E-IFN-α into the quadriceps of mice. Mice were bled weekly and the serum was analyzed for IFN-α expression using the Biosource ELISA kit. As shown in FIG. 9 circulating levels of hIFN-α was detected in the peripheral blood, and more importantly, it was identified over the high background level seen in these nu/nu animals. […] Using this mouse model circulating levels of human IFN-α were detected. Human MSC may also be detected using molecular, fluorescent, and immunohistochemical approaches.

[7] = system: MSC; assay: Effect of MDA7 on growth of the MSC; format: cell-based; conditions: MSC growth not affected
Experimental: MSC were infected with a β-gal MDA7 adenovirus provided by Dr. Sunil Chada (Introgen, Houston, Tex.) at 50, 500, 5,000, and 25,000 MOI. All experiments were performed in duplicate supernatant from control and MDA7-MSC was obtained and added to KBM5 and KBM5-STI cells and assayed at 24 and 72 hours. Co-cultures of β-gal MDA7-MSC and control MSC with KBM5 (STI-sensitive) and KBM5-STI (STI-resistant) cells were also performed, with the MSC growing to near-confluency and 0.125×10^6 cells/mL plated on the MSC in 12 well plates. All wells were assayed at 24 and 72 hours.

[8] = patients with chronic phase CML

## IFNα
[1]
  Growth inhibition of KBM5 cells: pronounced growth inhibitory effects
[2]
  Growth inhibition of KBM5-STI cells: but not on KBM5-STI cells
[2]; in vitro, KBM5 and KBM5-STI cells
  Enhancement of the STI effect by IFNα: did not enhance the STI effect
[3]; CML patients at 5 years
  CCR's lost: 42%
[3]; CML patients at 8 years
  CCR's lost: 50%
[3]; patients who received INFα for CML
  Patients able to maintain high concentrations: less than 30%
[4]; advanced melanoma
  Overall response rate: 20%
[4]; high risk melanoma
  Improvement in the fraction of patients who are disease-free: 42%

## Cc1ccc(NC(=O)c2ccc(CN3CCN(C)CC3)cc2)cc1Nc1nccc(-c2cccnc2)n1 [ST1571]
[1]
  Growth inhibition of KBM5 cells: highly sensitive
[2]
  Growth inhibition of KBM5-STI cells: resistant
[3]; [8]
  Complete cytogenetic remissions: 95%
  Hematological remission: > 90%
  RT-PCR negativity: 8%

## CC#C[C@]1(O)CC[C@H]2[C@@H]3CCC4=CC(=O)CCC4=C3[C@@H](c3ccc(N(C)C)cc3)C[C@@]21C [MFP, mifpristone]
[5]
  Time of peak IFN-α expression after drug addition: 4 to 5 days
[5]; 18 h exposure
  Duration of IFN-α expression after a one-time addition of MFP: 8 to 10 days
[6]
  Period over which the single peak of IFN-α activity decays: 7 days

B1: MDA7: melanoma differentiation associated protein 7, classified as interleukin-24 (protein, UniProt Q13007 52-206, looked up)
Interleukin-24: QEFHFGPCQVKGVVPQKLWEAFWAVKDTMQAQDNITSARLLQQEVLQNVSDAESCYLVHTLLEFYLKTVFKNYHNRTVEVRTLKSFSTLANNFVLIVSQLQPSQENEMFSIRDSAHRRFLLFRRAFKQLDVEAALTKALGEVDILLTWMQKFYKL
[7]
  Toxic effects on MSC: no toxic effects
